# Assays:
# [1] = system: A549 cells; test: Drug combination experiments, live cell counting; assay type: cell-based, human; conditions: 4 h
# Method: In drug combination experiments, cells were grown for 2 days in the absence or in the presence of 40 μM FTS and were then treated for 4 h with gemcitabine (100 or 200 nM), cisplatin (50 or 100 nM), doxorubicin (50 or 100 nM), or paclitaxel (2.5 or 5 nM). Live cells were counted after a further 3 days of incubation with or without FTS. Experiments were performed twice in quadruplicate. To determine whether A549 cells were resistant to apoptosis, an experiment to examine the survival of human lung cancer A549 cells after exposure to a chemotherapeutic agent in the presence of FTS was performed. Thus, to determine whether treatment with FTS can increase the sensitivity of A549 cells to cytotoxic drugs, A549 cells were incubated for 48 h with DMSO (control) or with 40 μM FTS, then for 4 h with gemcitabine, cisplatin, doxorubicin, or paclitaxel at the indicated concentrations. The cells were then washed and incubated for a further 72 h with DMSO or with 40 μM FTS. Live cells were collected and counted. The numbers of cells in the drug-treated cultures, expressed as percentages of the numbers in the vehicle-treated control, are shown in FIGS. 13A-13D. Values are means±SD. *P<0.05, **P<0.01, compared to vehicle-treated control.
# [2] = system: A549 cells; test: A549-cell-implanted nude mouse model, tumor growth; assay type: in vivo, nude mice; conditions: gemcitabine alone 36 mg/kg i.p. every 4 days (FIG. 14D)
# Method: Nude mice (6 weeks old) were housed in barrier facilities on a 12-h light/dark cycle. Food and water were supplied ad libitum. On day zero, A549 or HTB-58 cells (5×10^6 cells in 0.1 ml PBS) were implanted subcutaneously (s.c.) just above the right femoral joint. After 5 or 11 days the mice were separated randomly into control groups that had received only the vehicle and FTS-treated groups. Daily FTS treatments were administered either intraperitoneally (i.p.) or orally. Tumor volumes or weights were determined as described in Barkan, B., Starinsky, S., Friedman, E., Stein, R., Kloog, Y., Clin Cancer Res 12:5533-42 (2006). Gemcitabine treatment (36 mg/kg, i.p.) was administered every 4 days.
# To determine whether FTS inhibited tumor growth in vivo, experiments were conducted using a nude mouse model. The lung cancer cells were implanted s.c. above the right femoral joint and the mice were then treated with FTS. In a first experiment, the effect of i.p. administration of FTS on tumor growth in A549 cells was assessed. Treatment was started 5 days after cell implantation, by which time the tumors were palpable. Tumor volumes were determined 24 days after implantation in two groups of mice (n=8) that had received daily i.p. administration of either the vehicle (control) or 10 mg/kg FTS.
# In an additional set of experiments, the A549-cell-implanted nude mouse model was used to examine the effect of orally administered FTS on tumor growth. First, cells were implanted as described above and daily oral treatment with FTS (50 mg/kg; n=6) or vehicle (n=5) was started either 11 days (FIG. 14C) or 6 days (FIG. 14D) after implantation. […] Next, the effects of orally administered FTS, alone or in combination with gemcitabine, on A549-cell tumor growth was examined (FIG. 14D). Six days after cell implantation, mice were divided into four groups (n=8 per group) and treated orally with vehicle alone (control), FTS alone (60 mg/kg), vehicle and gemcitabine (36 mg/kg, i.p. every 4 days), or FTS and gemcitabine. Treatments with gemcitabine began 1 week after FTS treatment was started.
SMILES,reduction in cell numbers ([1]; cisplatin alone 50 nM),reduction in cell numbers ([1]; cisplatin alone 100 nM),reduction in cell numbers ([1]; gemcitabine alone 100 nM),reduction in cell numbers ([1]; gemcitabine alone 200 nM),effect on tumor weight [2]
"N.N.[Cl][Pt][Cl] [cisplatin, cis-diamminedichloroplatinum(II)]",11±11%,30±12.9%,–,–,–
"Cl.Nc1ccn([C@@H]2O[C@H](CO)[C@@H](O)C2(F)F)c(=O)n1 [gemcitabine, 2′-deoxy-2′,2′-difluorocytidine monohydrochloride]",–,–,< 11%,< 11%,significant reduction in tumor weight

# — patent US8232253B2, “Treatment of lung cancer” (Ramot at Tel-Aviv University Ltd., priority 2006, dated 2012)
